In ChEMBL document CHEMBL6153094, “Rationally designed highly amphipathic antimicrobial peptides demonstrating superior bacterial selectivity relative to the corresponding α-helix peptide” (Eur J Med Chem, 2025):
The source made the active and inactive calls. The rule behind the calls is not given here. Where a SMILES comes first, the peptide text is derived from it. Bridges are numbered along the chain shown (N, C = ends). [ ]: non-standard residue; d: D form. The star is where a group is joined. X1 = CC[C@H](C)CCCCC(=O)*; dDab = NCC[C@@H](N)C(=O)O; Dab = NCC[C@H](N)C(=O)O

Assays:
Staphylococcus aureus [1] = assay: Antibacterial activity against Staphylococcus aureus ATCC 25923 incubated for 18 hrs in presence of 2.5% serum by broth microdilution method; type: functional, organism-based
Cell membrane [2] = assay: Disruption of membrane integrity in Staphylococcus aureus ATCC 25923 at 2 times of MIC incubated for 30 to 120 mins by SEM analysis; type: subcellular; details: time 30-120 min
Pseudomonas aeruginosa [3] = assay: Antibacterial activity against Pseudomonas aeruginosa ATCC 27853 incubated for 18 hrs in presence of 5% serum by broth microdilution method; type: functional, organism-based
Cell membrane [4] = assay: Induction of inner membrane permeabilization in Escherichia coli ML-35 ATCC 43837 assessed as increase in […] measured for 135 mins by ONPG based analysis; type: subcellular
Staphylococcus aureus [5] = assay: Induction of morphological changes in Staphylococcus aureus ATCC 25923 assessed as membrane disruption at 2 times of MIC incubated for 30 to 120 mins by SEM analysis; type: functional, organism-based; details: time 30-120 min
Cell membrane [6] = assay: Disruption of membrane integrity in Pseudomonas aeruginosa ATCC 27853 at 2 times of MIC incubated for 30 to 120 mins by SEM analysis; type: subcellular; details: time 30-120 min
Pseudomonas aeruginosa [7] = assay: Antibacterial activity against Pseudomonas aeruginosa ATCC 27853 incubated for 18 hrs in presence of 2.5% serum by broth microdilution method; type: functional, organism-based
Cell membrane [8] = assay: Disruption of outer membrane integrity in Pseudomonas aeruginosa ATCC 27853 assessed as increase in fluorescence intensity at 2 times of MIC measured for 12 mins by NPN uptake assay; type: subcellular
Pseudomonas aeruginosa [9] = assay: Bactericidal activity against Pseudomonas aeruginosa ATCC 27853 assessed as bacterial eradication at 4 times of MIC measured within 30 mins by time-kill kinetics assay; type: functional, organism-based
DNA [10] = assay: Binding affinity to Pseudomonas aeruginosa ATCC 27853 DNA at 1 to 8 times of MIC measured after 30 mins by agarose gel electrophoresis; type: nucleic-acid assay
Pseudomonas aeruginosa [11] = assay: Bactericidal activity against Pseudomonas aeruginosa ATCC 27853 assessed as bacterial killing measured upto 360 mins by time-kill kinetics assay; type: functional, organism-based
DNA [12] = assay: Binding affinity to Staphylococcus aureus ATCC 25923 DNA at 1 to 8 times of MIC measured after 30 mins by agarose gel electrophoresis; type: nucleic-acid assay
Staphylococcus aureus [13] = assay: Antibacterial activity against methicillin-resistant Staphylococcus aureus ATCC 33591 infected in male Balb/c mouse model of full thickness skin wound assessed as reduction in bacteria in skin wound at 1 mg/ml pre-infected with bacteria for 1 hrs followed by compound administration at 1,24,48 and 72 hrs post infection and measured after 10 days by photographic analysis; type: functional, organism-based; details: time 10.0 day
Pseudomonas aeruginosa [14] = assay: Induction of morphological changes in Pseudomonas aeruginosa ATCC 27853 assessed as cellular fragmentation at 2 times of MIC incubated for 30 to 120 mins by SEM analysis; type: functional, organism-based; details: time 30-120 min
Staphylococcus aureus [15] = assay: Induction of morphological changes in Staphylococcus aureus ATCC 25923 assessed as blister formation at 2 times of MIC incubated for 30 to 120 mins by SEM analysis; type: functional, organism-based; details: time 30-120 min
Staphylococcus aureus [16] = assay: Induction of morphological changes in Staphylococcus aureus ATCC 25923 assessed as cellular fragmentation at 2 times of MIC incubated for 30 to 120 mins by SEM analysis; type: functional, organism-based; details: time 30-120 min
Staphylococcus aureus [17] = assay: Bactericidal activity against Staphylococcus aureus ATCC 25923 assessed as bacterial killing measured upto 360 mins by time-kill kinetics assay; type: functional, organism-based
Pseudomonas aeruginosa [18] = assay: Bactericidal activity against Pseudomonas aeruginosa ATCC 27853 assessed as bacterial eradication at 2 times of MIC measured within 30 mins by time-kill kinetics assay; type: functional, organism-based
Staphylococcus aureus [19] = assay: Bactericidal activity against Staphylococcus aureus ATCC 25923 assessed as bacterial eradication at 1 times of MIC measured after 360 mins by time-kill kinetics assay; type: functional, organism-based
Pseudomonas aeruginosa [20] = assay: Antibacterial activity against Pseudomonas aeruginosa ATCC 27853 incubated for 18 hrs in presence of 10% serum by broth microdilution method; type: functional, organism-based
Pseudomonas aeruginosa [21] = assay: Induction of morphological changes in Pseudomonas aeruginosa ATCC 27853 assessed as membrane disruption at 2 times of MIC incubated for 30 to 120 mins by SEM analysis; type: functional, organism-based; details: time 30-120 min
Pseudomonas aeruginosa [22] = assay: Induction of morphological changes in Pseudomonas aeruginosa ATCC 27853 assessed as cell adhesion at 2 times of MIC incubated for 30 to 120 mins by SEM analysis; type: functional, organism-based; details: time 30-120 min
Staphylococcus aureus [23] = assay: Bactericidal activity against Staphylococcus aureus ATCC 25923 assessed as bacterial eradication at 4 times of MIC measured after 120 mins by time-kill kinetics assay; type: functional, organism-based
Staphylococcus aureus [24] = assay: Bactericidal activity against Staphylococcus aureus ATCC 25923 assessed as bacterial killing at 1 to 4 times of MIC by time-kill kinetics assay; type: functional, organism-based; details: time <= 360.0 min
Klebsiella pneumoniae [25] = assay: Antibacterial activity against Klebsiella pneumoniae ATCC 700603 infected in male Balb/c mouse model of pneumonia assessed as decrease in decrease in IL-6 level in lung at 5 mg/kg, ip administered at 4 and 12 hrs post-infected and measured after 24 hrs by ELISA; type: functional, organism-based; details: time 20.0 hrs
Pseudomonas aeruginosa [26] = assay: Antibacterial activity against Pseudomonas aeruginosa ATCC 27853 assessed as inhibition of bacterial growth compound pretreated with 32 microg/ml of LPS for 1 hrs followed by bacterial addition and measured after 18 hrs by absorbance based assay; type: functional, organism-based
Klebsiella pneumoniae [27] = assay: Antibacterial activity against Klebsiella pneumoniae ATCC 700603 infected in male Balb/c mouse model of pneumonia assessed as decrease in bacterial load in lung at 5 mg/kg, ip administered at 4 and 12 hrs post-infected and measured after 24 hrs by agar plate method; type: functional, organism-based; details: time 20.0 hrs
Klebsiella pneumoniae [28] = assay: Antibacterial activity against Klebsiella pneumoniae ATCC 700603 infected in male Balb/c mouse model of pneumonia assessed as decrease in decrease in IL-1beta level in lung at 5 mg/kg, ip administered at 4 and 12 hrs post-infected and measured after 24 hrs by ELISA; type: functional, organism-based; details: time 20.0 hrs
Pseudomonas aeruginosa [29] = assay: Antibiofilm activity in Pseudomonas aeruginosa ATCC 27853 assessed as inhibition of biofilm formation at 1/2 times of MIC incubated for 24 hrs by crystal violet staining based analysis; type: functional, organism-based
Staphylococcus aureus [30] = assay: Antibacterial activity against Staphylococcus aureus ATCC 25923 incubated for 18 hrs in presence of 10% serum by broth microdilution method; type: functional, organism-based
Cell membrane [31] = assay: Disruption of outer membrane integrity in Pseudomonas aeruginosa ATCC 27853 assessed as increase in fluorescence intensity at 4 times of MIC measured for 12 mins by NPN uptake assay; type: subcellular
Pseudomonas aeruginosa [32] = assay: Induction of morphological changes in Pseudomonas aeruginosa ATCC 27853 assessed as content leakage at 2 times of MIC incubated for 30 to 120 mins by SEM analysis; type: functional, organism-based; details: time 30-120 min
Klebsiella pneumoniae [33] = assay: Antibacterial activity against Klebsiella pneumoniae ATCC 700603 infected in male Balb/c mouse model of pneumonia assessed as decrease in decrease in TNF-alpha level in lung at 5 mg/kg, ip administered at 4 and 12 hrs post-infected and measured after 24 hrs by ELISA; type: functional, organism-based; details: time 20.0 hrs
Pseudomonas aeruginosa [34] = assay: Induction of morphological changes in Pseudomonas aeruginosa ATCC 27853 assessed as blister formation at 2 times of MIC incubated for 30 to 120 mins by SEM analysis; type: functional, organism-based; details: time 30-120 min
Staphylococcus aureus [35] = assay: Bactericidal activity against Staphylococcus aureus ATCC 25923 assessed as bacterial eradication at 2 times of MIC measured after 120 mins by time-kill kinetics assay; type: functional, organism-based
Staphylococcus aureus [36] = assay: Antibacterial activity against Staphylococcus aureus ATCC 25923 incubated for 18 hrs in presence of 5% serum by broth microdilution method; type: functional, organism-based
Staphylococcus aureus [37] = assay: Induction of morphological changes in Staphylococcus aureus ATCC 25923 assessed as cell adhesion at 2 times of MIC incubated for 30 to 120 mins by SEM analysis; type: functional, organism-based; details: time 30-120 min
Pseudomonas aeruginosa [38] = assay: Bactericidal activity against Pseudomonas aeruginosa ATCC 27853 assessed as bacterial eradication at 1 times of MIC measured within 30 mins by time-kill kinetics assay; type: functional, organism-based
Pseudomonas aeruginosa [39] = assay: Bactericidal activity against Pseudomonas aeruginosa ATCC 27853 assessed as bacterial killing at 1 to 4 times of MIC by time-kill kinetics assay; type: functional, organism-based; details: time <= 360.0 min
Staphylococcus aureus [40] = assay: Antibacterial activity against methicillin-resistant Staphylococcus aureus ATCC 33591 infected in male Balb/c mouse model of full thickness skin wound assessed as reduction in bacterial load in skin at 1 mg/ml pre-infected with bacteria for 1 hrs followed by compound administration at 1,24,48 and 72 hrs post infection and measured 60 hrs post infection by agar plate method; type: functional, organism-based; details: time 59.0 hrs
Cell membrane [41] = assay: Disruption of outer membrane integrity in Pseudomonas aeruginosa ATCC 27853 assessed as increase in fluorescence intensity at 1 times of MIC measured for 12 mins by NPN uptake assay; type: subcellular
Staphylococcus aureus [42] = assay: Induction of morphological changes in Staphylococcus aureus ATCC 25923 assessed as content leakage at 2 times of MIC incubated for 30 to 120 mins by SEM analysis; type: functional, organism-based; details: time 30-120 min

## CC(C)CCCCC(=O)N[C@@H](CCN)C(=O)N[C@H](C(=O)N[C@@H](CCN)C(=O)N[C@H]1CCNC(=O)[C@H]([C@@H](C)O)NC(=O)[C@H](CCN)NC(=O)[C@H](CCN)NC(=O)[C@H](CC(C)C)NC(=O)[C@@H](Cc2ccccc2)NC(=O)[C@@H](CCN)NC1=O)[C@@H](C)O.CC[C@H](C)CCCCC(=O)N[C@@H](CCN)C(=O)N[C@H](C(=O)N[C@@H](CCN)C(=O)N[C@H]1CCNC(=O)[C@H]([C@@H](C)O)NC(=O)[C@H](CCN)NC(=O)[C@H](CCN)NC(=O)[C@H](CC(C)C)NC(=O)[C@@H](Cc2ccccc2)NC(=O)[C@@H](CCN)NC1=O)[C@@H](C)O (X1-[Dab]T[Dab][Dab][dDab][dF]L[Dab][Dab]T; lactam 4-C)
Staphylococcus aureus [1]
  Activity: Active
Cell membrane [2]
  Activity: Active
Pseudomonas aeruginosa [3]
  Activity: Active
Cell membrane [4]
  Activity: Active; Lower Concentration Of Compound Is Sufficient To Disrupt Inner Membrane
Staphylococcus aureus [5]
  Activity: Active
Cell membrane [6]
  Activity: Active; Pronounced Detrimental Effect Observed
Pseudomonas aeruginosa [7]
  Activity: Active
Cell membrane [8]
  Activity: Active
Pseudomonas aeruginosa [9]
  Activity: Active
DNA [10]
  Activity: Not active; Weak Binding Affinity Observed
Pseudomonas aeruginosa [11]
  Activity: Dose-dependent-effect
DNA [12]
  Activity: Not active; Weak Binding Affinity Observed
Staphylococcus aureus [13]
  Activity: Active; Obvious Facilitation Of Wound Healing Not Observed
Pseudomonas aeruginosa [14]
  Activity: Active
Staphylococcus aureus [15]
  Activity: Active
Staphylococcus aureus [16]
  Activity: Active
Staphylococcus aureus [17]
  Activity: Dose-dependent-effect
Pseudomonas aeruginosa [18]
  Activity: Active
Staphylococcus aureus [19]
  Activity: Active
Pseudomonas aeruginosa [20]
  Activity: Active
Pseudomonas aeruginosa [21]
  Activity: Active
Pseudomonas aeruginosa [22]
  Activity: Active
Staphylococcus aureus [23]
  Activity: Active
Staphylococcus aureus [24]
  Activity: Time-dependent-effect
Klebsiella pneumoniae [25]
  Activity: inactive
Pseudomonas aeruginosa [26]
  Activity: Not active; Compound Binds To Lps To Exert Its Activity
Klebsiella pneumoniae [27]
  Activity: Active
Klebsiella pneumoniae [28]
  Activity: Active
Pseudomonas aeruginosa [29]
  Activity: inactive
Staphylococcus aureus [30]
  Activity: Active
Cell membrane [31]
  Activity: Active; Maximum Permeability Effects Observed
Pseudomonas aeruginosa [32]
  Activity: Active
Klebsiella pneumoniae [33]
  Activity: Active
Pseudomonas aeruginosa [34]
  Activity: Active
Staphylococcus aureus [35]
  Activity: Active
Staphylococcus aureus [36]
  Activity: Active
Staphylococcus aureus [37]
  Activity: Active
Pseudomonas aeruginosa [38]
  Activity: Active
Pseudomonas aeruginosa [39]
  Activity: Time-dependent-effect
Staphylococcus aureus [40]
  Activity: Active
Cell membrane [41]
  Activity: Active
Staphylococcus aureus [42]
  Activity: Active
